This note sets out measurements from US8580965B2, “Substituted sulfonamide compounds” (Gruenenthal GmbH, priority 2006, dated 2013).

For test [1], the target named is T1, human B1R receptor (bradykinin 1 receptor) (Homo sapiens, UniProt P46663).
T1 construct: host or cells: CHO K1 cells (hB1R cells)
T1 sequence (P46663 1-353): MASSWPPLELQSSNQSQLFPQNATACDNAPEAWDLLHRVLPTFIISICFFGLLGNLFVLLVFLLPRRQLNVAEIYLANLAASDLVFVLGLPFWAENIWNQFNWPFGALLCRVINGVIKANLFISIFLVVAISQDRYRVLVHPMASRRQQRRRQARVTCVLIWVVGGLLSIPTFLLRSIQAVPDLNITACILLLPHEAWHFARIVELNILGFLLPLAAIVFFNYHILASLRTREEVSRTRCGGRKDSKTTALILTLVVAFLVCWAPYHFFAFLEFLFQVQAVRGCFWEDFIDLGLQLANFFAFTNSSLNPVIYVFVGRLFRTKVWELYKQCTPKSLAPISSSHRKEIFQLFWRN
Briefly: FLIPR Ca2+ assay (Fluo-4) on CHO K1 cells stably transfected with the human B1R gene; % activation and % inhibition at 10 μM. Format: cell-based. The conditions noted are these: CHO K1 hB1R cells, Ca2+ inflow after 0.5 nM Lys-Des-Arg9-bradykinin; for inhibition at 10 µM: CHO-K1, test substance 10 μM, read-out: B1R antagonism, human [10 μM] % inhibition. In a few lines:
(§1)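 Fluo-4 Ca2+ flux on FLIPR in stable hB1R or rB1R CHO K1 lines, two additions. Agonism: 10 µM compound versus 0.5 nM Lys-Des-Arg9-BK (human) or 100 nM Des-Arg9-BK (rat); antagonism: same agonists applied 10 min later, suppression expressed against maximum achievable inhibition.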

For test [2], the target named is T2, B1R receptor of the rat (bradykinin 1 receptor) (Rattus norvegicus, UniProt P97583).
T2 construct: host or cells: CHO K1 cells (rB1R cells)
T2 sequence (P97583 1-337): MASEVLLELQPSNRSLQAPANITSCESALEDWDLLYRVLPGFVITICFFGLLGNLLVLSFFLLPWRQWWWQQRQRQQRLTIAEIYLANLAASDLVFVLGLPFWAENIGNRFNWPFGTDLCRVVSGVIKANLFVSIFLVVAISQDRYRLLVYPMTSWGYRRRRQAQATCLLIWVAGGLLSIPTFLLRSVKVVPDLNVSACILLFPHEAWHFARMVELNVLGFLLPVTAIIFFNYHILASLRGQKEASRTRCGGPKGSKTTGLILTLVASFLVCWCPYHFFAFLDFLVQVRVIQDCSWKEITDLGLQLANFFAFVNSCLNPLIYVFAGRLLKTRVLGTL
As to the kind of experiment: FLIPR Ca2+ assay (Fluo-4) on CHO K1 cells stably transfected with the B1R gene of the rat; % activation and % inhibition at 10 μM. Format: cell-based. Particulars: CHO K1 rB1R cells, Ca2+ inflow after 100 nM Des-Arg9-bradykinin; for inhibition at 10 µM: CHO-K1, test substance 10 μM, read-out: B1R antagonism, rat [10 μM] % inhibition. In a few lines: as §1

[3] abbreviates: test substance 10 μM, hydrochloride.

Structures can show the parent of a compound that is named as a salt.

With `COc1cc(C)c(S(=O)(=O)N2CCCC2COCC(=O)N2CCC(O)(c3cccnc3)CC2)c(C)c1` (stereo not shown) [Example 89, 1-(4′-hydroxy-3′,4′,5′,6′-tetrahydro-2′H-[3,4′]bipyridinyl-1′-yl)-2-[1-(4-methoxy-2,6-dimethyl-phenylsulfonyl)-pyrrolidin-2-ylmethoxy]-ethanone; hydrochloride], the “B1R antagonism, human [10 μM] % inhibition” value in test [1] (setting [3]) is listed as 104.46%. Besides, the “B1R antagonism, rat [10 μM] % inhibition” value in test [2] (setting [3]) worked out at 100.44%.
As to `O=C(CCC1CCCCN1S(=O)(=O)c1cccc(C(F)(F)F)c1)N1CCC(O)(c2ccc(Br)cc2)CC1` (stereo not shown) [Example 123, 1-(4-(4-bromophenyl)-4-hydroxypiperidin-1-yl)-3-(1-(3-(trifluoromethyl)phenylsulfonyl)piperidin-2-yl)propan-1-one], the inhibition (usually the drop in the measured response relative to a control, in per cent) at 10 µM worked out at 47.9% in test [1] and 54.7% in test [2].
The matching figures for `Cc1cc(S(=O)(=O)N(C)CCOCC(=O)N2CCC(O)(Cc3ccccc3)CC2)c(C)cc1Cl` [Example 153, N-(2-(2-(4-benzyl-4-hydroxypiperidin-1-yl)-2-oxoethoxy)ethyl)-4-chloro-N,2,5-trimethylphenylsulfonamide]: 71.8% and 69.1%.
The like results for `O=C(COCC1CCCN(S(=O)(=O)c2c(Cl)cc(Cl)cc2Cl)C1)N1CCC(O)(c2ccc(Cl)cc2)CC1` (stereo not shown) [Example 254, 1-(4-(4-chlorophenyl)-4-hydroxypiperidin-1-yl)-2-((1-(2,4,6-trichlorophenylsulfonyl)piperidin-3-yl)methoxy)ethanone] were, in that order, 62.5% and 36.8%.
The like results for `O=C(COC1CCN(S(=O)(=O)c2ccc(F)cc2)C1)N1CCC(O)(c2ccccn2)CC1` (stereo not shown) [Example 58, 2-[1-(4-fluoro-phenylsulfonyl)-pyrrolidin-3-yloxy]-1-(4′-hydroxy-3′,4′,5′,6′-tetrahydro-2′H-[2,4′]bipyridinyl-1′-yl)-ethanone] were, in that order, -23.8% and -7.05%.
With `COc1cc(C)c(S(=O)(=O)N(C)CCOCCC(=O)N2CCC(O)(c3cccnc3)CC2)c(C)c1` [Example 133, N-(2-(3-(4-hydroxy-4-(pyridin-3-yl)piperidin-1-yl)-3-oxopropoxy)ethyl)-4-methoxy-N,2,6-trimethylphenylsulfonamide], the inhibition at 10 µM was determined as 84.1% in test [1] and 96.1% in test [2].
The like results for `COc1cc(C)c(S(=O)(=O)N2Cc3ccccc3C[C@H]2COCC(=O)N2CCC(O)(c3cccnc3)CC2)c(C)c1` [Example 128, (S)-1-(4-hydroxy-4-(pyridin-3-yl)piperidin-1-yl)-2-((2-(4-methoxy-2,6-dimethylphenylsulfonyl)-1,2,3,4-tetrahydroisoquinolin-3-yl)methoxy)ethanone] were, in that order, 101% and 98.8%.
The like results for `COc1cc(C)c(S(=O)(=O)N2CCC(COCC(=O)N3CCC(O)(c4cccs4)CC3)C2)c(C)c1` (stereo not shown) [Example 267, 1-(4-hydroxy-4-(thiophen-2-yl)piperidin-1-yl)-2-((1-(4-methoxy-2,6-dimethylphenylsulfonyl)pyrrolidin-3-yl)methoxy)ethanone] were, in that order, 90.6% and 97.8%.
In the case of `O=C(COCC1CCc2ccccc2N1S(=O)(=O)c1ccc(Cl)c(Cl)c1)N1CCC(O)(c2ccccn2)CC1` (stereo not shown) [Example 146, 2-((1-(3,4-dichlorophenylsulfonyl)-1,2,3,4-tetrahydroquinolin-2-yl)methoxy)-1-(4-hydroxy-4-(pyridin-2-yl)piperidin-1-yl)ethanone], the inhibition at 10 µM stood at 70.7% in test [1] and 92.8% in test [2].
The matching figures for `O=C(COC1CCN(S(=O)(=O)c2ccc(Cl)cc2Cl)C1)N1CCC(O)(c2ccccn2)CC1` (stereo not shown) [Example 17, 2-[1-(2,4-dichloro-phenylsulfonyl)-pyrrolidin-3-yloxy]-1-(4′-hydroxy-3′,4′,5′,6′-tetrahydro-2′H-[2,4′]bipyridinyl-1′-yl)-ethanone]: 28% and 1.79%.
As to `O=C(COCC1CCCCN1S(=O)(=O)c1c(Cl)cccc1Cl)N1CCC(O)(c2cccs2)CC1` (stereo not shown) [Example 270, 2-((1-(2,6-dichlorophenylsulfonyl)piperidin-2-yl)methoxy)-1-(4-hydroxy-4-(thiophen-2-yl)piperidin-1-yl)ethanone], the inhibition at 10 µM turned out to be 93.9% in test [1] and 99.7% in test [2].
The matching figures for `COc1cc(C)c(S(=O)(=O)N(C)CCOCCC(=O)N2CCC(O)(c3ccc(Cl)c(C(F)(F)F)c3)CC2)c(C)c1` [Example 278, N-(2-(3-(4-(4-chloro-3-(trifluoromethyl)phenyl)-4-hydroxypiperidin-1-yl)-3-oxopropoxy)ethyl)-4-methoxy-N,2,6-trimethylphenylsulfonamide]: 96.4% and 99.9%.
The matching figures for `COc1ccc(S(=O)(=O)N2CCCCC2CCOCC(=O)N2CCC(O)(c3ccccn3)CC2)cc1` (stereo not shown) [Example 44, 1-(4′-hydroxy-3′,4′,5′,6′-tetrahydro-2′H-[2,4′]bipyridinyl-1′-yl)-2-{2-[1-(4-methoxy-phenylsulfonyl)-piperidin-2-yl]-ethoxy}-ethanone]: -2.3% and 76.6%.
The like results for `COc1cc(C)c(S(=O)(=O)N2CCCCC2COCC(=O)N2CCC(O)(c3ccccc3)CC2)c(C)c1` (stereo not shown) [Example 244, 1-(4-hydroxy-4-phenylpiperidin-1-yl)-2-((1-(4-methoxy-2,6-dimethylphenylsulfonyl)piperidin-2-yl)methoxy)ethanone] were, in that order, 105% and 99.3%.
For the compound `O=C(COCC1CCCCN1S(=O)(=O)c1csc2ccccc12)N1CCC(O)(c2cccnc2)CC1` (stereo not shown) [Example 273, 2-((1-(benzo[b]thiophen-3-ylsulfonyl)piperidin-2-yl)methoxy)-1-(4-hydroxy-4-(pyridin-3-yl)piperidin-1-yl)ethanone], the figures for the inhibition at 10 µM in test [1] and in test [2] were 103% and 101%, respectively.
Turning to `O=C(COC1CCCN(S(=O)(=O)c2c(Cl)cc(Cl)cc2Cl)C1)N1CCC(O)(c2ccc(Cl)c(C(F)(F)F)c2)CC1` (stereo not shown) [Example 250, 1-(4-(4-chloro-3-(trifluoromethyl)phenyl)-4-hydroxypiperidin-1-yl)-2-(1-(2,4,6-trichlorophenylsulfonyl)piperidin-3-yloxy)ethanone], the inhibition at 10 µM in test [1] is 18%; in test [2] it was 76.3%.
Take `CN(CCOCC(=O)N1CCC(O)(Cc2ccccc2)CC1)S(=O)(=O)c1c(Cl)cc(Cl)cc1Cl` [Example 9, N-{2-[2-(4-benzyl-4-hydroxy-piperidin-1-yl)-2-oxo-ethoxy]-ethyl}-2,4,6-trichloro-N-methyl-phenylsulfonamide]: the inhibition at 10 µM in test [1] came out at 95.7%; in test [2], 91.1%.
